Reference: publication PMC10857328, “Utilization of Biopolymer-Based Lutein Emulsion as an Effective Delivery System to Improve Lutein Bioavailability in Neonatal Rats” (Nutrients, 2024)
Read-outs that look alike come from different tables or passages of the source. Marks after values point to notes of the source that are not given here.

Key:
[1] = Daily dosing study 2 (maternal standard chow diet containing lutein): serum and tissue lutein concentrations; format: in vivo, neonatal Sprague-Dawley rats; conditions: 2 mg/kg daily oral P5-P18
Method: Serum and tissue lutein concentration was determined using an ultra-performance liquid chromatography (UPLC) system (Waters, Milford, MA, USA) equipped with a photo-diode array detector (PDA)/MS/MS, according to our well-established methods with slight modification. As for the serum, 100 μL of the sample was incubated with 2 mL of 100% ethanol at room temperature for an hour for lipid extraction. For the tissues, ~0.1 g of the sample was weighed, homogenized, and incubated with 2 mL of 100% ethanol at room temperature for an hour. An amount of 1 mL of 5% (w/v) potassium hydroxide was added to the sample and incubated in a water bath at 60 °C for 45 min for saponification. Upon saponification, samples were allowed to cool for about 15 min, and then an addition of 4 mL of hexane containing 0.1% butylated hydroxytoluene (w/v) and 2 mL of deionized water was added. The mixture was vortexed for 20 s and centrifuged at 1600 rpm at 25 °C for 15 min. The upper layer was collected following centrifugation and dried under nitrogen at 37 °C. The dried sample was then rinsed twice with hexane, dried, and reconstituted with 100 µL of acetonitrile-methanol. The reconstituted sample was centrifuged for 2 min to remove any possible precipitation. For UPLC analysis, 10 µL of the sample was injected into the Waters Acquity UPLC HSS T3 column. Solvent A was acetonitrile: methanol (50:50, v/v), and solvent B was 100% isopropanol. The mobile phase was made up of solvent A and solvent B in a volume ratio of 95:5 (v/v). The flow rate was set as 0.5 mL/min, and the column temperature was maintained at 35 °C. The detection wavelength was set at 446 nm. Retinyl acetate (Sigma-Aldrich, St. Louis, MO, USA) was used as the internal standard. To mimic the human dietary intake of lutein, daily dosing study 2 was conducted (Figure 1C). In this study, maternal rats consumed a standard rodent chow diet containing lutein from ingredients (i.e., ground corn) during pregnancy and lactation (Figure S2). The study design was similar to that of daily dosing study 1, except that a negative control group, in which rat pups were given olive oil from P5 to P18, was included in this study. Serum and tissue lutein concentrations were analyzed using the methods described in Section 2.3.2.

[2] = encapsulation technique Polymer, Mice, cited from earlier work
[3] = encapsulation technique Nanoparticles, Sprague-Dawley rats, cited from earlier work
[4] = maternal standard chow diet containing lutein
[5] = maternal standard chow diet containing lutein, listed as free lutein

Substance: Lutein ester [Free Lutein]
- Lutein concentration, BAT [1, 4]: 0.026 ± 0.014 ^a nmol/g
- Lutein concentration, WAT [1, 4]: 0.34 ± 0.23 ^a nmol/g
- Lutein concentration, brain [1, 4]: 0.06 ± 0.04 ^ab nmol/g
- Lutein concentration, eye [1, 4]: 0.01 ± 0.003 ^c nmol/g
- Lutein concentration, kidney [1, 4]: 0.12 ± 0.03 ^b nmol/g
- Lutein concentration, liver [1, 4]: 1.23 ± 0.38 ^bc nmol/g
- Lutein concentration, lung [1, 4]: 0.043 ± 0.007 ^a nmol/g
- Lutein concentration, serum [1, 4]: 17.6 ± 4.39 nM
- Lutein concentration, spleen [1, 4]: 0.58 ± 0.29 ^b nmol/g
- Lutein concentration, serum ([1]; maternal standard chow diet containing lutein (Table 4)): 17.61 ± 4.39 ^b nmol/L
- Lutein concentration, BAT [1, 5]: 0.026 ± 0.014 nmol/g
- Lutein concentration, WAT [1, 5]: 0.34 ± 0.23 nmol/g
- Lutein concentration, brain [1, 5]: 0.06 ± 0.04 nmol/g
- Lutein concentration, eye [1, 5]: 0.01 ± 0.003 nmol/g
- Lutein concentration, kidney [1, 5]: 0.12 ± 0.03 nmol/g
- Lutein concentration, liver [1, 5]: 1.23 ± 0.38 nmol/g
- Lutein concentration, lung [1, 5]: 0.043 ± 0.007 nmol/g
- Tmax (serum) ([2]; ref Arunkumar et al. (2015) [42]): 4 h
- Tmax (serum) ([2]; ref Ranganathan et al. (2019) [57]): 4 h
- Tmax (serum) ([3]; ref Chang et al. (2018) [59]): 3 h
- Tmax (serum) ([3]; ref Liu et al. (2017) [37]): 2 h
- Tmax (serum) ([3]; ref Wu et al. (2019) [54]): 2 h
- Tmax (serum) ([3]; ref Zhang et al. (2015) [58]): 6 ± 2.2 h
